Data from patent publication US20090192154A1, “SULTAM DERIVATIVES” (Asahi Kasei Pharma Corporation, priority 2007, published 2009).
pIC50: −log10 of the molar value. Like-named read-outs stand apart in the source and are kept apart here.

How the values were obtained:
Assay type in all cases: biochemical
[1] = target: T1, human recombinant ADAMTS-5 (Homo sapiens, UniProt Q9UNA0); experiment: Inhibitory action for ADAMTS-5 (aggrecanase) activity, FRET assay with aggrecan interglobular domain peptide; conditions: human recombinant ADAMTS-5, 37° C. for 60 minutes
T1 construct: human recombinant ADAMTS-5 in which 6×His tag was added to the C-end side of Asn624; 6xHis (C); made in house
T1 sequence (Q9UNA0 262-624 limits assumed): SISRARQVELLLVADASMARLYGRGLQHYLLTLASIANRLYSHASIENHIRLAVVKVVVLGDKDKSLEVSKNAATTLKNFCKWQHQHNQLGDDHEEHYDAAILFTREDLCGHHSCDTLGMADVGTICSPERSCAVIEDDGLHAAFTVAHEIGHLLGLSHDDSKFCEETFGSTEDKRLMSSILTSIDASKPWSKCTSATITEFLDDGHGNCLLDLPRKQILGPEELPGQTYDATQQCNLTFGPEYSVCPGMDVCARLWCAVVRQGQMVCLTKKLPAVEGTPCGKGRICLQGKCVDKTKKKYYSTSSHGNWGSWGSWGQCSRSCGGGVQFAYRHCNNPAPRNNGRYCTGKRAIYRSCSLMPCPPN
Experimental: The enzyme protein used for measurement of ADAMTS-5 activity was human recombinant ADAMTS-5. An insect cell line was prepared that stably expressed human recombinant ADAMTS-5 in which 6×His tag was added to the C-end side of Asn624. The culture supernatant of this cell line was collected, and the obtained culture supernatant was purified using Ni-NTA agarose (Qiagen)
A matrix peptide used for measurement of aggrecanase activity was Interglobular domain of human recombinant aggrecan. With reference to the method of Hughes, et al. (J. Biol. Chem. 272: pp. 20269-20274, 1997), the peptide of Thr331 to Gly457 of human aggrecan was contained, and the FLAG epitope peptide was added at the N-terminal, and the C-terminal was modified with biotin. This peptide was expressed using Escherichia coli, and the obtained Escherichia coli was subjected to lysis, and then the peptide was purified with an affinity column (Promega)
Desired concentration of the test compound was reacted in 40 μl of a mixed reaction solution containing 50 mmol/L Tris-HCl (pH 7.5), 100 mmol/L NaCl, 10 mmol/L CaCl2, 0.05% Brij35 and human recombinant ADAMTS-5 and Interglobular domain peptide of human recombinant aggrecan at 37° C. for 60 minutes. To the mixed reaction solution was added 10 μl of 0.2 mol/L EDTA to stop the enzyme reaction. Five μl of this mixed reaction solution was harvested and transferred to a 384 well plate. 0.2% Bovine albumin, cryptate-labeled Streptavidin (CIS bio) and XL 665-labeled anti-FLAG (M2) antibody (CIS bio) suitably diluted with PBS (−)-containing 800 mmol/L potassium fluoride were added thereto so that the amount of each of the added matters was 2.5 μl. The resultant solution was incubated at room temperature. After 60 minutes, the fluorescence value was measured at 340 nm excitation wavelength and 615 nm and 665 nm measurement wavelengths with a fluorescence plate reader. When the matrix peptide was not cleaved, the fluorescence resonance energy transfer from cryptate to XL665 occurs and long life fluorescence of 665 nm wavelength is generated. […] Therefore, the aggrecanase activity was calculated using the change of the ratio of the fluorescence value at 665 nm and the fluorescence value at 615 nm. […] The inhibitory action for aggrecanase activity was represented by IC50 value (μmol/L). Exp. No. in Table 2 represents Example number.

[2] = target: T2, activated human recombinant MMP-3 (Homo sapiens, UniProt P08254); experiment: Inhibitory action for MMP-3 activity, fluorescence peptide assay; conditions: activated human recombinant MMP-3, 30° C. for 45 minutes
T2 construct: purchased R&D
Experimental: (§1) Desired concentration of the test compound was reacted in 100 μl of a mixed reaction solution containing 50 mmol/L Tris-HCl (pH7.5), 150 mmol/LNaCl, 10 mmol/LCaCl2, 0.05% Brij35 and activated human recombinant MMP-3 (R&D) and fluorescence peptide matrix Mca-ArgProLysProValGlu-Nval-TrpArgLys (Dnp) —NH2 (R&D) at 30° C. for 45 minutes. To the mixed reaction solution was added 10 μl of 0.2 mol/L EDTA to stop the enzyme reaction. Then, the fluorescence value was measured at 320 nm excitation wavelength and 405 nm measurement wavelength with a fluorescence plate reader.

[3] = target: T3, activated human recombinant MMP-14 catalytic domain (Homo sapiens, UniProt P50281); experiment: Inhibitory action for MMP-14 activity, fluorescence peptide assay; conditions: 30° C. for 45 minutes
T3 construct: purchased Calbiochem
Experimental: as §1, with “MMP-14 catalytic domain (Calbiochem)” for “MMP-3 (R&D)”, “matrix” for “matrix Mca-ArgProLysProValGlu-Nval-TrpArgLys (Dnp) —NH2”

[4] = target: T4, activated human recombinant MMP-2 (Homo sapiens, UniProt P08253); experiment: Inhibitory action for MMP-2 activity, fluorescence peptide assay; conditions: activated human recombinant MMP-2, 30° C. for 45 minutes
T4 construct: purchased R&D
T4 sequence (P08253 110-660): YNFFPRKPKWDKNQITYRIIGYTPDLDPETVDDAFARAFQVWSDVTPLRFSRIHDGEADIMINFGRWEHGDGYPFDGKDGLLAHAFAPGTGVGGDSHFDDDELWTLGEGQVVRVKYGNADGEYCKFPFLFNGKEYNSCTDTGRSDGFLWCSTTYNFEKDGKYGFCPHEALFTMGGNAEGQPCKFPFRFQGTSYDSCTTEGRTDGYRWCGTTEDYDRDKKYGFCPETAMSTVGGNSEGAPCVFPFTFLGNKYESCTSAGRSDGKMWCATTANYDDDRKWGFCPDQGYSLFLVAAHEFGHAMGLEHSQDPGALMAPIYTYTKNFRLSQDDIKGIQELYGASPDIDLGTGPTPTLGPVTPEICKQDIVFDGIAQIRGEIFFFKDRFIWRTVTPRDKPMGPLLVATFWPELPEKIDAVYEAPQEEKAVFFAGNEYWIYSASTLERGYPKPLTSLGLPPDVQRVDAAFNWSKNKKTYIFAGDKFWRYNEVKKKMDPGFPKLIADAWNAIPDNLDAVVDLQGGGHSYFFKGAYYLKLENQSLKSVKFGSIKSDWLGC
Experimental: as §1, with “mmol/L NaCl,” for “mmol/LNaCl,”, “MMP-2” for “MMP-3”, “Mca-ProLeuGlyLeuDpaAlaArg-NH2” for “Mca-ArgProLysProValGlu-Nval-TrpArgLys (Dnp) —NH2”, “solution,” for “solution was added”, “EDTA was added” for “EDTA”

[5] = read-out: ADAMTS-5 inhibitory activity IC50 value

T2 sequence (P08254 100-477): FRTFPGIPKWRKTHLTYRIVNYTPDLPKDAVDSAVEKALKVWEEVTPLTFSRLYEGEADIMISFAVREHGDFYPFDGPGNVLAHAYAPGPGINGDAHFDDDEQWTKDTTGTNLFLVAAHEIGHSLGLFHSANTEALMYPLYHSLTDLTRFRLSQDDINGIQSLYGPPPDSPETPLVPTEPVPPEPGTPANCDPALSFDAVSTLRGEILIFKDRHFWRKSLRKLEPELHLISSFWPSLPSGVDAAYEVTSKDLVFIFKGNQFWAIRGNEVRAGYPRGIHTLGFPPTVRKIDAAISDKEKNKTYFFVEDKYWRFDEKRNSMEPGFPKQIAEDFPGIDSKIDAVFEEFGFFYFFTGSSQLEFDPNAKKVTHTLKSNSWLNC

CCC(C(=O)O)N1Cc2sc(/C=C/c3ccc(-c4ccccc4)cc3)cc2S1(=O)=O (single isomer, unassigned) [Example 41]
pIC50 [1, 5]: ≥ 5.70

CC(C)C(C(=O)NO)N1Cc2sc(-c3ccccc3)cc2S1(=O)=O (centres unmarked) [Example 5]
pIC50 ([1]; read-out: ADAMTS-5 IC50): 5.68

CC(C(=O)NO)N1Cc2sc(-c3ccccc3)cc2S1(=O)=O (centres unmarked) [Example 11]
pIC50 ([1]; read-out: ADAMTS-5 IC50): 5.40

CCC(C(=O)NO)N1Cc2sc(-c3ccccc3)cc2S1(=O)=O (centres unmarked) [Example 12]
pIC50 ([1]; read-out: ADAMTS-5 IC50): 5.70

O=C(NO)C(C1CCCCC1)N1Cc2sc(-c3ccccc3)cc2S1(=O)=O (centres unmarked) [Example 13]
pIC50 ([1]; read-out: ADAMTS-5 IC50): 5.70

O=C(NO)C(c1ccccc1)N1Cc2sc(-c3ccccc3)cc2S1(=O)=O (centres unmarked) [Example 14]
pIC50 ([1]; read-out: ADAMTS-5 IC50): 5.15

CCC(C(=O)NO)N1Cc2sc(-c3ccccc3)cc2S1(=O)=O (centres unmarked) [Example 18]
pIC50 [1, 5]: ≥ 5.70

CCC(C(=O)O)N1Cc2sc(/C=C/c3ccc(-c4ccccc4)cc3)cc2S1(=O)=O (centres unmarked) [Example 22]
pIC50 [1, 5]: ≥ 5.70

CCC(C(=O)NO)N1Cc2sc(/C=C/c3ccc(-c4ccccc4)cc3)cc2S1(=O)=O (centres unmarked) [Example 26]
pIC50 [1, 5]: ≥ 5.70

CCC(C(=O)O)N1Cc2sc(-c3ccc(/C=C/c4ccccc4)cc3)cc2S1(=O)=O (centres unmarked) [Example 30]
pIC50 [1, 5]: ≥ 5.70

CCC(C(=O)O)N1Cc2sc(-c3ccc(-c4ccc5c(ccn5C)c4)cc3)cc2S1(=O)=O (centres unmarked) [Example 53]
pIC50 [1, 5]: ≥ 5.70

CCC(C(=O)O)N1Cc2sc(-c3ccc(-c4cc5ccccc5[nH]4)cc3)cc2S1(=O)=O (centres unmarked) [Example 54]
pIC50 [1, 5]: ≥ 5.70

CCC(C(=O)O)N1Cc2sc(-c3ccc(-c4cncnc4)cc3)cc2S1(=O)=O (centres unmarked) [Example 56]
pIC50 [1, 5]: ≥ 5.70

CCC(C(=O)O)N1Cc2sc(-c3ccc(/C=C/c4ccc(OC)cc4)cc3)cc2S1(=O)=O (centres unmarked) [Example 60]
pIC50 [1, 5]: ≥ 5.70

CCC(C(=O)O)N1Cc2sc(-c3ccc(C#Cc4ccccc4)cc3)cc2S1(=O)=O (centres unmarked) [Example 61]
pIC50 [1, 5]: ≥ 5.70

CCC(C(=O)O)N1Cc2sc(C#Cc3ccc(N(C)C)cc3)cc2S1(=O)=O (centres unmarked) [Example 66]
pIC50 [1, 5]: ≥ 5.70

CCC(C(=O)O)N1Cc2sc(C#Cc3ccc(-c4ccccc4)cc3)cc2S1(=O)=O (centres unmarked) [Example 69]
pIC50 [1, 5]: ≥ 5.70

CCC(C(=O)O)N1Cc2sc(-c3ccc(/C=C/c4ccc(Cl)cc4)cc3)cc2S1(=O)=O (centres unmarked) [Example 94]
pIC50 [1, 5]: ≥ 5.70

CCC(C(=O)O)N1Cc2sc(-c3ccc(/C=C/c4ccc(C)cc4)cc3)cc2S1(=O)=O (centres unmarked) [Example 95]
pIC50 [1, 5]: ≥ 5.70

CCC(C(=O)O)N1Cc2sc(-c3ccc(/C=C/c4ccc(-c5ccccc5)cc4)cc3)cc2S1(=O)=O (centres unmarked) [Example 96]
pIC50 [2]: ≤ 4.52 | pIC50 [1, 5]: ≥ 5.70 | pIC50 [3]: ≤ 4.52 | pIC50 [4]: ≤ 4.52

CCC(C(=O)O)N1Cc2sc(-c3ccc(/C=C/c4ccsc4)cc3)cc2S1(=O)=O (centres unmarked) [Example 97]
pIC50 [1, 5]: ≥ 5.70

CCC(C(=O)O)N1Cc2sc(-c3ccc(-c4ccc5c(cnn5C)c4)cc3)cc2S1(=O)=O (centres unmarked) [Example 102]
pIC50 [2]: ≤ 4.52 | pIC50 [1, 5]: ≥ 5.70 | pIC50 [3]: ≤ 4.52

CCC(C(=O)O)N1Cc2cc(-c3ccc(COc4ccc(Oc5ccccc5)cc4)cc3)sc2S1(=O)=O (centres unmarked) [Example 104]
pIC50 [2]: ≤ 4.52 | pIC50 [1, 5]: ≥ 5.70 | pIC50 [3]: ≤ 4.52 | pIC50 [4]: ≤ 4.52

CCC(C(=O)O)N1Cc2sc(-c3ccc(OCc4ccccc4)c(F)c3)cc2S1(=O)=O (centres unmarked) [Example 113]
pIC50 [2]: ≤ 4.52 | pIC50 [3]: ≤ 4.52 | pIC50 [4]: ≤ 4.52

CCC(C(=O)O)N1Cc2sc(-c3ccc(NC(=O)c4ccc(OCc5ccccc5)cc4)cc3)cc2S1(=O)=O (centres unmarked) [Example 147]
pIC50 [2]: ≤ 4.52 | pIC50 [1, 5]: ≥ 5.70 | pIC50 [3]: ≤ 4.52 | pIC50 [4]: ≤ 4.52
